Where a SMILES comes first, the peptide text is derived from it. Bridges are numbered along the chain shown (N, C = ends). [ ]: non-standard residue; d: D form. The star is where a group is joined. hPhe(3-Cl-4-CF3) = N[C@@H](CCc1ccc(C(F)(F)F)c(Cl)c1)C(=O)O; NPrPhe(4-CF3) = CCCN[C@@H](Cc1ccc(C(F)(F)F)cc1)C(=O)O; NEtPhe(4-CF3) = CCN[C@@H](Cc1ccc(C(F)(F)F)cc1)C(=O)O; hPhe(3,4-Cl2) = N[C@@H](CCc1ccc(Cl)c(Cl)c1)C(=O)O; NMeGly(cPent) = CN[C@H](C(=O)O)C1CCCC1; Hyp = O=C(O)[C@@H]1C[C@@H](O)CN1; NMeD = CN[C@@H](CC(=O)O)C(=O)O; NMeL = CN[C@@H](CC(C)C)C(=O)O; Ac6c = NC1(C(=O)O)CCCCC1; Morpholide = C1CN(*)CCO1; NMeA = CN[C@@H](C)C(=O)O; Ac5c = NC1(C(=O)O)CCCC1; Aze = O=C(O)[C@@H]1CCN1; Ac3c = NC1(C(=O)O)CC1; Aib = CC(C)(N)C(=O)O; Sar = CNCC(=O)O
What was measured:
[1] = biological target: GDP-bound KRAS wild-type protein (Homo sapiens, UniProt P01116); assay: Binding to KRAS by surface plasmon resonance (SPR), Single Cycle Kinetics; details: SPR Single Cycle Kinetics, GDP-bound KRAS wild-type protein, 1:1 binding model; read-out: KRAS KD
[2] = biological target: GDP-bound NRAS wild-type protein (Homo sapiens, UniProt P01111); assay: Binding to NRAS by surface plasmon resonance (SPR), Single Cycle Kinetics; details: SPR, GDP-bound NRAS wild-type protein vs GDP-bound KRAS wild-type protein
[3] = biological target: GDP-bound HRAS wild-type protein (Homo sapiens, UniProt P01112); assay: Binding to HRAS by surface plasmon resonance (SPR), Single Cycle Kinetics; details: SPR, GDP-bound HRAS wild-type protein vs GDP-bound KRAS wild-type protein
Sequence of GDP-bound HRAS wild-type protein (P01112 whole entry): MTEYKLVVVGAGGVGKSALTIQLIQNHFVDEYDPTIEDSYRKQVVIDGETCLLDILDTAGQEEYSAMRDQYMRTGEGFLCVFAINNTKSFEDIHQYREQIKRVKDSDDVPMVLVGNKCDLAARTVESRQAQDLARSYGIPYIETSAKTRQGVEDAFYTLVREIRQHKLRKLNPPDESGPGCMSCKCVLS

Sequence of GDP-bound NRAS wild-type protein (P01111 whole entry): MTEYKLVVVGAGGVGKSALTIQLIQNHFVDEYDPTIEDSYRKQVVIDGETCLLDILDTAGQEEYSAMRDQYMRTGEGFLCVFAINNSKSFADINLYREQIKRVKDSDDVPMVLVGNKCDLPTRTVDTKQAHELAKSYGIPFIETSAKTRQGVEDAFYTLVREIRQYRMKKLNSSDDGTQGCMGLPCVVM
Sequence of GDP-bound KRAS wild-type protein (P01116 whole entry): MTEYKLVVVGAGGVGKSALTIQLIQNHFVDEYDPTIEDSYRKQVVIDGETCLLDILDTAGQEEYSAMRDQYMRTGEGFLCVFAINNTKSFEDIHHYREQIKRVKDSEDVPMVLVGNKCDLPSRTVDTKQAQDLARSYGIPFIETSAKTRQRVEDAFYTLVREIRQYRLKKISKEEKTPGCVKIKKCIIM

Kd [1] | Structure (SMILES) | NRAS/KRAS (ratio of KD value for NRAS to KD value for KRAS) [2] | HRAS/KRAS (ratio of KD value for HRAS to KD value for KRAS) [3]
0.47 nM | CCCN1C(=O)[C@@H]2CCN2C(=O)[C@H](C)N(C)C(=O)[C@H]([C@@H](C)CC)NC(=O)[C@H](CC(C)C)N(C)C(=O)C[C@@H](C(=O)N2CCOCC2)N(C)C(=O)[C@H](C2CCCC2)N(C)C(=O)C2(CCCCC2)NC(=O)[C@@H]2CCCN2C(=O)[C@H](CCc2ccc(C(F)(F)F)c(Cl)c2)NC(=O)CN(C)C(=O)[C@@H]1Cc1ccc(C(F)(F)F)cc1 [PP0226] ([NMeL]I[NMeA][Aze][NPrPhe(4-CF3)][Sar][hPhe(3-Cl-4-CF3)]P[Ac6c][NMeGly(cPent)][NMeD]-Morpholide; lactam N-11) | C (A compound having a KD ratio of 0.1 or more and less than 3 is denoted as C) | B (a compound having 3 or more and less than 10 is denoted as B)
0.26 nM | CCCN1C(=O)[C@@H]2CCN2C(=O)[C@H](C)N(C)C(=O)[C@H]([C@@H](C)CC)NC(=O)[C@H](CC(C)C)N(C)C(=O)C[C@@H](C(=O)N2CCOCC2)N(C)C(=O)[C@H](C2CCCC2)N(C)C(=O)C2(CCCC2)NC(=O)[C@@H]2CCCN2C(=O)[C@H](CCc2ccc(Cl)c(Cl)c2)NC(=O)CN(C)C(=O)[C@@H]1Cc1ccc(C(F)(F)F)cc1 [PP0227] ([NMeL]I[NMeA][Aze][NPrPhe(4-CF3)][Sar][hPhe(3,4-Cl2)]P[Ac5c][NMeGly(cPent)][NMeD]-Morpholide; lactam N-11) | C (A compound having a KD ratio of 0.1 or more and less than 3 is denoted as C) | B (a compound having 3 or more and less than 10 is denoted as B)
0.037 nM | CCCN1C(=O)[C@@H]2CCN2C(=O)[C@H](C)N(C)C(=O)[C@H]([C@@H](C)CC)NC(=O)[C@H](CC(C)C)N(C)C(=O)C[C@@H](C(=O)N2CCOCC2)N(C)C(=O)[C@H](C2CCCC2)N(C)C(=O)C2(CCCC2)NC(=O)[C@@H]2C[C@@H](OCC)CN2C(=O)[C@H](CCc2ccc(C(F)(F)F)c(Cl)c2)NC(=O)CN(C)C(=O)[C@@H]1Cc1ccc(C(F)(F)F)cc1 [PP0228] ([NMeL]I[NMeA][Aze][NPrPhe(4-CF3)][Sar][hPhe(3-Cl-4-CF3)][Hyp](Et)[Ac5c][NMeGly(cPent)][NMeD]-Morpholide; lactam N-11) | C (A compound having a KD ratio of 0.1 or more and less than 3 is denoted as C) | B (a compound having 3 or more and less than 10 is denoted as B)
0.25 nM | CCCN1C(=O)CN(C)C(=O)CN(C)C(=O)[C@H]([C@@H](C)CC)NC(=O)[C@H](CC(C)C)N(C)C(=O)C[C@@H](C(=O)N2CCOCC2)N(C)C(=O)[C@H](C2CCCC2)N(C)C(=O)C2(CC2)NC(=O)[C@@H]2CCCN2C(=O)[C@H](CCc2ccc(C(F)(F)F)c(Cl)c2)NC(=O)CN(C)C(=O)[C@@H]1Cc1ccc(C(F)(F)F)cc1 [PP0229] ([NMeL]I[Sar][Sar][NPrPhe(4-CF3)][Sar][hPhe(3-Cl-4-CF3)]P[Ac3c][NMeGly(cPent)][NMeD]-Morpholide; lactam N-11) | B (a compound having 3 or more and less than 10 is denoted as B) | B (a compound having 3 or more and less than 10 is denoted as B)
0.39 nM | CCCN1C(=O)CN(C)C(=O)CN(C)C(=O)[C@H]([C@@H](C)CC)NC(=O)[C@H](CC(C)C)N(C)C(=O)C[C@@H](C(=O)N2CCOCC2)N(C)C(=O)[C@H](C2CCCC2)N(C)C(=O)C(C)(C)NC(=O)[C@@H]2CCCN2C(=O)[C@H](CCc2ccc(C(F)(F)F)c(Cl)c2)NC(=O)CN(C)C(=O)[C@@H]1Cc1ccc(C(F)(F)F)cc1 [PP0230] ([NMeL]I[Sar][Sar][NPrPhe(4-CF3)][Sar][hPhe(3-Cl-4-CF3)]P[Aib][NMeGly(cPent)][NMeD]-Morpholide; lactam N-11) | B (a compound having 3 or more and less than 10 is denoted as B) | C (A compound having a KD ratio of 0.1 or more and less than 3 is denoted as C)
0.55 nM | CCCN1C(=O)CN(C)C(=O)CN(C)C(=O)[C@H]([C@@H](C)CC)NC(=O)[C@H](CC(C)C)N(C)C(=O)C[C@@H](C(=O)N2CCOCC2)N(C)C(=O)[C@H](C2CCCC2)N(C)C(=O)C2(CCCCC2)NC(=O)[C@@H]2CCCN2C(=O)[C@H](CCc2ccc(C(F)(F)F)c(Cl)c2)NC(=O)CN(C)C(=O)[C@@H]1Cc1ccc(C(F)(F)F)cc1 [PP0231] ([NMeL]I[Sar][Sar][NPrPhe(4-CF3)][Sar][hPhe(3-Cl-4-CF3)]P[Ac6c][NMeGly(cPent)][NMeD]-Morpholide; lactam N-11) | B (a compound having 3 or more and less than 10 is denoted as B) | C (A compound having a KD ratio of 0.1 or more and less than 3 is denoted as C)
0.28 nM | CCCN1C(=O)CN(C)C(=O)CN(C)C(=O)[C@H]([C@@H](C)CC)NC(=O)[C@H](CC(C)C)N(C)C(=O)C[C@@H](C(=O)N2CCOCC2)N(C)C(=O)[C@H](C2CCCC2)N(C)C(=O)C2(CCCC2)NC(=O)[C@@H]2CCCN2C(=O)[C@H](CCc2ccc(Cl)c(Cl)c2)NC(=O)CN(C)C(=O)[C@@H]1Cc1ccc(C(F)(F)F)cc1 [PP0232] ([NMeL]I[Sar][Sar][NPrPhe(4-CF3)][Sar][hPhe(3,4-Cl2)]P[Ac5c][NMeGly(cPent)][NMeD]-Morpholide; lactam N-11) | B (a compound having 3 or more and less than 10 is denoted as B) | B (a compound having 3 or more and less than 10 is denoted as B)
0.052 nM | CCCN1C(=O)CN(C)C(=O)CN(C)C(=O)[C@H]([C@@H](C)CC)NC(=O)[C@H](CC(C)C)N(C)C(=O)C[C@@H](C(=O)N2CCOCC2)N(C)C(=O)[C@H](C2CCCC2)N(C)C(=O)C2(CCCC2)NC(=O)[C@@H]2C[C@@H](OCC)CN2C(=O)[C@H](CCc2ccc(C(F)(F)F)c(Cl)c2)NC(=O)CN(C)C(=O)[C@@H]1Cc1ccc(C(F)(F)F)cc1 [PP0233] ([NMeL]I[Sar][Sar][NPrPhe(4-CF3)][Sar][hPhe(3-Cl-4-CF3)][Hyp](Et)[Ac5c][NMeGly(cPent)][NMeD]-Morpholide; lactam N-11) | B (a compound having 3 or more and less than 10 is denoted as B) | C (A compound having a KD ratio of 0.1 or more and less than 3 is denoted as C)
0.54 nM | CC[C@H](C)[C@@H]1NC(=O)[C@H](CC(C)C)N(C)C(=O)C[C@@H](C(=O)N2CCOCC2)N(C)C(=O)[C@H](C2CCCC2)N(C)C(=O)C2(CCCCC2)NC(=O)[C@@H]2CCCN2C(=O)[C@H](CCc2ccc(C(F)(F)F)c(Cl)c2)NC(=O)CN(C)C(=O)[C@H](Cc2ccc(C(F)(F)F)cc2)N(CC)C(=O)CN(C)C(=O)CN(C)C1=O [PP0236] ([NMeL]I[Sar][Sar][NEtPhe(4-CF3)][Sar][hPhe(3-Cl-4-CF3)]P[Ac6c][NMeGly(cPent)][NMeD]-Morpholide; lactam N-11) | B (a compound having 3 or more and less than 10 is denoted as B) | C (A compound having a KD ratio of 0.1 or more and less than 3 is denoted as C)
0.28 nM | CC[C@H](C)[C@@H]1NC(=O)[C@H](CC(C)C)N(C)C(=O)C[C@@H](C(=O)N2CCOCC2)N(C)C(=O)[C@H](C2CCCC2)N(C)C(=O)C2(CCCC2)NC(=O)[C@@H]2CCCN2C(=O)[C@H](CCc2ccc(Cl)c(Cl)c2)NC(=O)CN(C)C(=O)[C@H](Cc2ccc(C(F)(F)F)cc2)N(CC)C(=O)CN(C)C(=O)CN(C)C1=O [PP0237] ([NMeL]I[Sar][Sar][NEtPhe(4-CF3)][Sar][hPhe(3,4-Cl2)]P[Ac5c][NMeGly(cPent)][NMeD]-Morpholide; lactam N-11) | B (a compound having 3 or more and less than 10 is denoted as B) | C (A compound having a KD ratio of 0.1 or more and less than 3 is denoted as C)
0.05 nM | CCCN1C(=O)[C@@H]2CCN2C(=O)[C@H](C)N(C)C(=O)[C@H]([C@@H](C)CC)NC(=O)[C@H](CC(C)C)N(C)C(=O)C[C@@H](C(=O)N2CCOCC2)N(C)C(=O)[C@H](C2CCCC2)N(C)C(=O)C2(CCCC2)NC(=O)[C@@H]2C[C@@H](O)CN2C(=O)[C@H](CCc2ccc(C(F)(F)F)c(Cl)c2)NC(=O)CN(C)C(=O)[C@@H]1Cc1ccc(C(F)(F)F)cc1 [PP0239] | C (A compound having a KD ratio of 0.1 or more and less than 3 is denoted as C) | B (a compound having 3 or more and less than 10 is denoted as B)
0.052 nM | CCCN1C(=O)CN(C)C(=O)CN(C)C(=O)[C@H]([C@@H](C)CC)NC(=O)[C@H](CC(C)C)N(C)C(=O)C[C@@H](C(=O)N2CCOCC2)N(C)C(=O)[C@H](C2CCCC2)N(C)C(=O)C2(CCCC2)NC(=O)[C@@H]2C[C@@H](O)CN2C(=O)[C@H](CCc2ccc(C(F)(F)F)c(Cl)c2)NC(=O)CN(C)C(=O)[C@@H]1Cc1ccc(C(F)(F)F)cc1 [PP0241] ([NMeL]I[Sar][Sar][NPrPhe(4-CF3)][Sar][hPhe(3-Cl-4-CF3)][Hyp][Ac5c][NMeGly(cPent)][NMeD]-Morpholide; lactam N-11) | B (a compound having 3 or more and less than 10 is denoted as B) | C (A compound having a KD ratio of 0.1 or more and less than 3 is denoted as C)
